Measurements from publication PMC9851200, “Multiparameter phenotypic screening for endogenous TFEB and TFE3 translocation identifies novel chemical series modulating lysosome function” (Autophagy, 2022).

How the values were obtained:
Format in all cases: binding
[1] = target: T1, kinases (KINOMEscan panel) (Homo sapiens, UniProt Q7L7X3); conditions: kinase TAOK1; NEW KINOMEscan
T1 sequence (Q7L7X3 1-1001): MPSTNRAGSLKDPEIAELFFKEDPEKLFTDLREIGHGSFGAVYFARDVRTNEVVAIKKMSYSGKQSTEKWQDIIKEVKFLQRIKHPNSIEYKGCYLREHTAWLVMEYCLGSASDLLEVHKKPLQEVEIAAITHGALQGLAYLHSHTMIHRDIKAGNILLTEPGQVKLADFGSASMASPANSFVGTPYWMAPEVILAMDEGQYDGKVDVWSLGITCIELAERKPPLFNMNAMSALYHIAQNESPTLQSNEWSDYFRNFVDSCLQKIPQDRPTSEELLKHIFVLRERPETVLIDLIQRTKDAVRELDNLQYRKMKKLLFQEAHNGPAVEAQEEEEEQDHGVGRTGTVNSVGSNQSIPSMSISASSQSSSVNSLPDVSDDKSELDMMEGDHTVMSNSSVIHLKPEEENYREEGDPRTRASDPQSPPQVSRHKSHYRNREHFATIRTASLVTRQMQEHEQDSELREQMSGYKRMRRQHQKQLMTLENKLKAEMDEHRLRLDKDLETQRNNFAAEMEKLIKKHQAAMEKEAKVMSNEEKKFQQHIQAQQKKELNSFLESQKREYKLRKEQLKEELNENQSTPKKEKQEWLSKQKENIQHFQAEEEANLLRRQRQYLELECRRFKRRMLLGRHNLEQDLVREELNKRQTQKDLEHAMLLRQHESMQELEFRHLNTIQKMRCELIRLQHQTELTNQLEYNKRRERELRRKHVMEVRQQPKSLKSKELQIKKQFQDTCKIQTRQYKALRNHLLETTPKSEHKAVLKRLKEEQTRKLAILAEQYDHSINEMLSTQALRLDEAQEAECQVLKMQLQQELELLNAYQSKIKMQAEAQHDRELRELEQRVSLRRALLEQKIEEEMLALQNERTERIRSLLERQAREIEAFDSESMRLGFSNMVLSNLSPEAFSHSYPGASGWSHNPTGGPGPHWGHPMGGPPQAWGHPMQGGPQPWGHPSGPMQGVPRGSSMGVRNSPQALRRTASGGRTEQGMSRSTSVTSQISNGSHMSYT

[2] = target: kinases (KINOMEscan panel) (Homo sapiens, UniProt Q86Z02); conditions: HIPK1; NEW KINOMEscan
[3] = target: kinases (KINOMEscan panel) (Homo sapiens, UniProt Q96Q40)
[4] = target: kinases (KINOMEscan panel) (Homo sapiens, UniProt P42336, I800L); conditions: kinase PIK3CA(I800L); NEW KINOMEscan
[5] = target: T2, kinases (KINOMEscan panel) (Homo sapiens, UniProt Q92630); conditions: DYRK2; NEW KINOMEscan
T2 sequence (Q92630 1-601): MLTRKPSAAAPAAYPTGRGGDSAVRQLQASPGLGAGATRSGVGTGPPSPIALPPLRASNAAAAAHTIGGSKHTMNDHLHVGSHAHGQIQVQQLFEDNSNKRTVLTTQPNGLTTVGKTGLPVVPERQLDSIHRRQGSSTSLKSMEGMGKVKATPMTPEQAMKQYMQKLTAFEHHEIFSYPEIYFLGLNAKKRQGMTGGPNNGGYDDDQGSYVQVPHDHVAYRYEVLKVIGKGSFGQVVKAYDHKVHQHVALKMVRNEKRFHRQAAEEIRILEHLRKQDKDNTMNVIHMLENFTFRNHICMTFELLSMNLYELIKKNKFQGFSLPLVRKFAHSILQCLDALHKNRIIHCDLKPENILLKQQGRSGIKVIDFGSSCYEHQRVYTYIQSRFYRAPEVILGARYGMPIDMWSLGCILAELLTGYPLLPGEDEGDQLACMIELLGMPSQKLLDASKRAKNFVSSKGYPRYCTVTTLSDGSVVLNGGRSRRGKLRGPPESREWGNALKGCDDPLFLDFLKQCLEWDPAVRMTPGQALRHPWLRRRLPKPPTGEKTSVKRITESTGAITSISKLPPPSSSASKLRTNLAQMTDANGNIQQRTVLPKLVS

Chain of kinases (KINOMEscan panel) (Homo sapiens, UniProt Q96Q40) (Q96Q40 whole entry): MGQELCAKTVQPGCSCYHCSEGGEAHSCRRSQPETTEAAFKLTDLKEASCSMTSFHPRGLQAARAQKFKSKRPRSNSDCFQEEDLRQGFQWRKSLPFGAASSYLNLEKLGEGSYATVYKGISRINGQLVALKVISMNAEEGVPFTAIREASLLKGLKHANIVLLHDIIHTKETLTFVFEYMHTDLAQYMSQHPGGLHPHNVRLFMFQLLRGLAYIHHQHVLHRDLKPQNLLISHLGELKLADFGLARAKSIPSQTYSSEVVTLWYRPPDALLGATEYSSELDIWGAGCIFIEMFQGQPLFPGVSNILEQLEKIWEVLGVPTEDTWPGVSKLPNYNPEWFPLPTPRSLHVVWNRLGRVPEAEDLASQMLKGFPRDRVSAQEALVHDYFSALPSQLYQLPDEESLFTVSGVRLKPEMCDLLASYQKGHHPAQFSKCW
Chain of kinases (KINOMEscan panel) (Homo sapiens, UniProt P42336, I800L) (P42336 whole entry I800L): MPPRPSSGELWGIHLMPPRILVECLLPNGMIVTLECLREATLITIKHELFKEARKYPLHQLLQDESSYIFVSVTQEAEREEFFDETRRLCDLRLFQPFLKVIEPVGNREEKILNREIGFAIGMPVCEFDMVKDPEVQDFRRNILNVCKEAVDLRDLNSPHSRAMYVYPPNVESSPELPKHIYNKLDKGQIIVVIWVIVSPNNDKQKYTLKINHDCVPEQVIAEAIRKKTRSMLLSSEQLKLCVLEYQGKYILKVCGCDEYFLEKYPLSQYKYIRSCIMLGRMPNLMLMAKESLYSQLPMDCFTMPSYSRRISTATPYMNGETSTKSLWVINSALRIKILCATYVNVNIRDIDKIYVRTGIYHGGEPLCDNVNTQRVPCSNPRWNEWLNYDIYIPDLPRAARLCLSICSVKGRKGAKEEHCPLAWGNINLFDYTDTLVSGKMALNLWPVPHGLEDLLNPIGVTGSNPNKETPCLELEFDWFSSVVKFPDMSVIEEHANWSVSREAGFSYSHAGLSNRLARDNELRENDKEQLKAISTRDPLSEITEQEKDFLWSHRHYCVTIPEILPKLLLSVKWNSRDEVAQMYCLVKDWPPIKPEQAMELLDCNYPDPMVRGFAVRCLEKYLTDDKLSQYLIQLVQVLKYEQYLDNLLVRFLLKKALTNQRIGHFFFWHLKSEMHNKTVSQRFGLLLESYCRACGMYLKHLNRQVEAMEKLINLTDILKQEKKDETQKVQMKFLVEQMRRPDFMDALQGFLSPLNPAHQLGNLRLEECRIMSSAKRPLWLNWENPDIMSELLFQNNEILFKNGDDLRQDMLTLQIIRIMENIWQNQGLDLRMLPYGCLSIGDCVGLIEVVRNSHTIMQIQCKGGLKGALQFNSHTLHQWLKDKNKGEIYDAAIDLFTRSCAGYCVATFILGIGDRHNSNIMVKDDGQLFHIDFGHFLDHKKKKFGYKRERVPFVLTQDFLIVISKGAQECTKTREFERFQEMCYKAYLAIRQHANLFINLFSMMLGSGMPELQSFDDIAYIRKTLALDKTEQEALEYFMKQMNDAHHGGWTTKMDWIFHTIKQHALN
Chain of kinases (KINOMEscan panel) (Homo sapiens, UniProt Q86Z02) (Q86Z02 whole entry): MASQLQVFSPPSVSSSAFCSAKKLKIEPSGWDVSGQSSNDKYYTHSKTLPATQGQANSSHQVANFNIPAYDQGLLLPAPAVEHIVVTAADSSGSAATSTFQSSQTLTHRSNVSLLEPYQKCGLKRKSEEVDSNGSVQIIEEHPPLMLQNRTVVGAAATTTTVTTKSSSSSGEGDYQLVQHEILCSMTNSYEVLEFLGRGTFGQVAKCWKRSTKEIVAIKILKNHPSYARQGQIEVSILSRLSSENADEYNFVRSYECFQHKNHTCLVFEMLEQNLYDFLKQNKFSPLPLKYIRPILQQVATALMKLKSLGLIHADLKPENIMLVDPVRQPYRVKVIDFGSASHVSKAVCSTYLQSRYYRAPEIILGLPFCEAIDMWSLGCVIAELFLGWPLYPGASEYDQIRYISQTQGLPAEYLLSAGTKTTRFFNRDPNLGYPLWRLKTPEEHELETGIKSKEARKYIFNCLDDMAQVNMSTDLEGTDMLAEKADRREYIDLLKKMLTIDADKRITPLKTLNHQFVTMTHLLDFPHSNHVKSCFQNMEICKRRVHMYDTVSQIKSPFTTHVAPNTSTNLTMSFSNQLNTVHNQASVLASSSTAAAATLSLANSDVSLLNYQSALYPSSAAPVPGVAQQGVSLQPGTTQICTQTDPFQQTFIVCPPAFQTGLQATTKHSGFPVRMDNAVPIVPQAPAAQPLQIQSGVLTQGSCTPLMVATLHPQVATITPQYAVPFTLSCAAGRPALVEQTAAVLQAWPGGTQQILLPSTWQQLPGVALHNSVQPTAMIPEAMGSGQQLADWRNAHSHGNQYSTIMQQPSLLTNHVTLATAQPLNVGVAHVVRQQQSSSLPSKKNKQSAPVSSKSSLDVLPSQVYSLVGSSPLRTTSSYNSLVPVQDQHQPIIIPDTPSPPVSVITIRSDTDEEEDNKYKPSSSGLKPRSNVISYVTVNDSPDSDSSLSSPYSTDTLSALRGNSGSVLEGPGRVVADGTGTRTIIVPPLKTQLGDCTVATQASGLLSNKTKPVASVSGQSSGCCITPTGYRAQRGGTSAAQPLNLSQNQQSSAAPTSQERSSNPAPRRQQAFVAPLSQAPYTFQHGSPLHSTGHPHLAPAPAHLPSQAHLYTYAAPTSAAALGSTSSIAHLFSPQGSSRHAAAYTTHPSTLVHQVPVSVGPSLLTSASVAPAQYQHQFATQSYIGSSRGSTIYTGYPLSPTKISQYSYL

Cc1cccc(-c2nc(Nc3ccc4nn(C)cc4c3)c3ccccc3n2)n1 [NK167]
KINOMEscan TAOK1 [1]: 0
KINOMEscan HIPK1 [2]: 27
KINOMEscan CDK15/PFTAIRE2 [3]: 0
KINOMEscan PIK3CA(I800L) [4]: 0
KINOMEscan DYRK2 [5]: 0

Cc1cccc(-c2nc(N(C)c3ccc4ncsc4c3)c3ccccc3n2)n1 [NK-161]
KINOMEscan TAOK1 [1]: 1
KINOMEscan HIPK1 [2]: 5
KINOMEscan CDK15/PFTAIRE2 [3]: 0
KINOMEscan PIK3CA(I800L) [4]: 0
KINOMEscan DYRK2 [5]: 12
